According to US7928096B2, “Polydiazeniumdiolated cyclic polyamines with polyphasic nitric oxide release and related compounds, compositions comprising same and methods of using same” (The United States of America, as represented by the …, priority 2002, dated 2011):
Where two headings read alike, the source gives them in different places.

Columns and labels:
[1] = Total moles of NO released by chemiluminescence; type: physicochemical; settings: for Moles of NO released: chemiluminescence; for Ideal moles of NO released: theoretical (ideal) amount
Description: (§1) The total moles of NO released were determined by chemiluminescence as previously described in Hrabie et al. (New Nitric Oxide Releasing Zwitterions Derived from Polyamines. J. Org. Chem., 1993, 58, 1472-1476). The NO release rates for the compounds prepared in Example 1 and Example 2 were determined by UV spectrophotometry by adding a stock solution of the compound in 0.01 M NaOH to pH 7.4 phosphate buffer (0.1 M) contained in a standard UV cell to generate final solutions at concentrations in the range of 50 to 100 μM. The rate of NO release was determined by the decrease in 250-252 nm absorbance over time at 37° C. as previously described by Keefer et al. (“NONOates” (1-Substituted Diazen-1-ium-1,2-diolates) as Nitric Oxide Donors: Convenient Nitric Oxide Dosage Forms. Methods in Enzymology, 1996, 268, 281-293). The results of the NO release of piperazine bisdiazeniumdiolate as discussed in Hrabie et al. (Organic Preparations and Procedures International, 1999, 31(2), 189-192) are included as a comparative example.

[2] = NO release rate by UV spectrophotometry (decrease in 250-252 nm absorbance); type: physicochemical; settings: phosphate buffer, pH 7.4, pH 7.4 phosphate buffer (0.1 M), 37° C., 50 to 100 μM
Excerpt: The invention provides a cyclic polyamine compound comprising at least three amino groups, wherein at least two of the amino groups are covalently bound to a nitrogen oxide-releasing group of the formula N2O2M, in which M is a pharmaceutically acceptable cation. The invention also provides a compound that has a polyphasic release of nitric oxide, wherein any subsequent release of nitric oxide has a rate that is at least about 3 times smaller than an initial rate of nitric oxide release. The rate of NO release can be determined by any suitable method. For example, the rate of NO release can be measured by the decrease in 250-252 nm absorbance over time at 37° C. as previously described by Keefer et al., “NONOates” (1-Substituted Diazen-1-ium-1,2-diolates) as Nitric Oxide Donors: Convenient Nitric Oxide Dosage Forms. Methods in Enzymology, 1996, 268, 281-293.
as §1

[3] = NO release monitored by chemiluminescence of effluent gas stream treated with ozone; settings: pH 7.4 phosphate buffer at 37° C.
Description: The diazeniumdiolated compound described in Example 4 was dissolved in pH 7.4 phosphate buffer at 37° C., and the release of NO was monitored by detection of the chemiluminescence generated by treatment of the effluent gas steam with ozone.
The diazeniumdiolated compound described in Example 5 was dissolved in pH 7.4 phosphate buffer at 37° C., and the release of NO was monitored by detection of the chemiluminescence generated by treatment of the effluent gas steam with ozone.
The diazeniumdiolated compound described in Example 6 was dissolved in pH 7.4 phosphate buffer at 37° C., and the release of NO was monitored by detection of the chemiluminescence generated by treatment of the effluent gas steam with ozone.
The diazeniumdiolated compound described in Example 7 was dissolved in pH 7.4 phosphate buffer at 37° C., and the release of NO was monitored by detection of the chemiluminescence generated by treatment of the effluent gas steam with ozone.
The diazeniumdiolated compound described in Example 9 was dissolved in pH 7.4 phosphate buffer at 37° C., and the release of NO was monitored by detection of the chemiluminescence generated by treatment of the effluent gas steam with ozone.

[4] = comparative example from Hrabie et al. 1999; cited from earlier work
[5] = read-out: t1/2 of initial phase
[6] = read-out: t1/2 of second phase (converted)

Row | Moles of NO released [1] [mol] | Ideal moles of NO released [1] [mol] | half-life [2, 5] [h] | half-life [2, 6] [h] | melting point | Compound | biphasic release of NO, first rate of release [3] [min] | biphasic release of NO, second rate of release [3] [min] | Moles of NO released [4] [mol]
1 | 3.3 | 4 | 0.0283 | 8.9 | 181 to 182 °C | [Na+].[Na+].[O-]/N=[N+](\[O-])N1CCCN(/[N+]([O-])=N/[O-])CCNCCCNCC1 [Example 1, 1,4,8,11-tetraazacyclotetradecane-1,11-bisdiazeniumdiolate] | – | – | –
2 | 3.3 | 4 | 0.0283 | 8.8 | 183 to 185 °C (dec.) | [Na+].[Na+].[O-]/N=[N+](\[O-])N1CCNCCNCCN(/[N+]([O-])=N/[O-])CC1 [Example 2, 1,4,7,10-tetraazacyclododecane-1,4-bisdiazeniumdiolate] | – | – | –
3 | – | – | – | – | – | O=NN([O-])N1CCN2CCN(CCN(N([O-])N=O)CC1)C(=O)C2=O.[Na+].[Na+] [Example 6, 1,4-bis(diazeniumdiolated)-1,4,7,10-tetraazabicyclo[8.2.2]tetradecane-11,12-dione, disodium salt] | 1.0 | 41.5 | –
4 | – | – | – | – | – | CCOC(=O)N1CCN(/[N+]([O-])=N/[O-])CCN(C(=O)OCC)CCN(/[N+]([O-])=N/[O-])CC1.[Na+].[Na+] [Example 7, 1,7-diazeniumdiolated-4,10-bis(ethoxycarbonyl)-1,4,7,10-tetraazacyclododecane, disodium salt] | 0.36 | 60.9 | –
5 | – | – | – | – | – | O=C1C(=O)N2CCCN([N+]([O-])=N[O-])CCN([N+]([O-])=N[O-])CCCN1CC2.[Na+].[Na+] [Example 9, 1,4-bis(diazeniumdiolated)-1,5,8,12-tetraazabicyclo[10.2.2.]hexadecane-13,14-dione, disodium salt] | 1.1 | 161 | –

Row | Compound | Moles of NO released [1] [mol] | Ideal moles of NO released [1] [mol] | half-life [2, 5] [h] | half-life [2, 6] [h] | melting point | biphasic release of NO, first rate of release [3] [min] | biphasic release of NO, second rate of release [3] [min] | Moles of NO released [4] [mol]
6 | piperazine bisdiazeniumdiolate [reference compound] | – | 4 | – | – | – | – | – | 4.3
